Measured values from paper PMC5840146, “Structure-Activity Relationship Analysis of 3-Phenylcoumarin-Based Monoamine Oxidase B Inhibitors” (Frontiers in Chemistry, 2018).

Experiments:
MAO-B = target: T1, MAO-B (Homo sapiens, UniProt P27338); experiment: continuous spectrophotometric MAO-B inhibition assay; format: biochemical; conditions: for LiPE: LiPE = pIC50 - QPlogPo/w, new analogs and pargyline; for IC50: dilution series 50 μM to 1 nM, duplicates, read-out: MAO-B inhibition IC50
T1 construct: purchased Sigma-Aldrich
T1 sequence (P27338 1-520): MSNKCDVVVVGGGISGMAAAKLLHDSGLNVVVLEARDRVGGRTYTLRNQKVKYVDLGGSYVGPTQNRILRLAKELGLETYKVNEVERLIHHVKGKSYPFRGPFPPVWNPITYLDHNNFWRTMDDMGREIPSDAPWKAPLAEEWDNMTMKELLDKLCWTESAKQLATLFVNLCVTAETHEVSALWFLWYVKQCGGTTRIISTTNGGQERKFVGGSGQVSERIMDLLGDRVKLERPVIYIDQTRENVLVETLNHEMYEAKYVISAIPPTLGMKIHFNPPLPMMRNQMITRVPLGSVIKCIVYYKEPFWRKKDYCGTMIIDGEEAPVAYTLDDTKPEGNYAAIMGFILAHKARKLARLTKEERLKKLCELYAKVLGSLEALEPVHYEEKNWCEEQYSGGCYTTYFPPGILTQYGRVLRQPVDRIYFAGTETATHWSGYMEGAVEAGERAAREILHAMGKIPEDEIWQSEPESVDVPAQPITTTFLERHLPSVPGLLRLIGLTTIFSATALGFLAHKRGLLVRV

ERα = target: T2, ERα (Homo sapiens, UniProt P03372); experiment: PolarScreen ER Alpha Competitor Assay (fluorescence polarization); format: binding; conditions: 10 μM
T2 construct: purchased Life Technologies
T2 sequence (P03372 1-595): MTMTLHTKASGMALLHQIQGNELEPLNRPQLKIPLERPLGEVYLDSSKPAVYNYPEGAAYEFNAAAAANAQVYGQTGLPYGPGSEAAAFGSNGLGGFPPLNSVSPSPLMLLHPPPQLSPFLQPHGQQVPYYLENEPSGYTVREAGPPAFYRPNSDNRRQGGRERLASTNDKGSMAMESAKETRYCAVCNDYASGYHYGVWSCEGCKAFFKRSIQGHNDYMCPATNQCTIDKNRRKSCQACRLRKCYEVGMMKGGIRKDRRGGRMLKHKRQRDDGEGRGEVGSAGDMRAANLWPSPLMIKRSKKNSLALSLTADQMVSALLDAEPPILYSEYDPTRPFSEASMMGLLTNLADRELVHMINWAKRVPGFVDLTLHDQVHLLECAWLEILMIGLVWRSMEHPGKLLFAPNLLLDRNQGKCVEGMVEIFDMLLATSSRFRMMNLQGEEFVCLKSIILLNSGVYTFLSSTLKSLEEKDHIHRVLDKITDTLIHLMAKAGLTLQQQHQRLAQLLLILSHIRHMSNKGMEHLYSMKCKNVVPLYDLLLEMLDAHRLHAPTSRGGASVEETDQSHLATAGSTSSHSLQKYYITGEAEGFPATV
Protocol: The pIC50 values for the derivatives (Table 1, Supplementary Table S1) were measured with green PolarScreen™ ER Alpha Competitor Assay (Life Technologies, CA, The United States of America) kit, following the manufacturer protocol as previously described (Niinivehmas et al., [2016]). The final concentration of the compounds ranged from 0.0007 to 10 000 nM in the dilution series which were performed as duplicates. The molecules were combined with 25 nM ERα and 4.5 nM fluormone in the assay buffer and placed on black low volume 384-well assay plate with NBS surface (Corning, NY, The United States of America). After mixing the assay plate, it was incubated for 2 h in RT. The fluorescence polarization was measured using excitation wave length 485 and emission wave length 535 with bandwidths of 25/20 nm on a 2104 EnVision® Multilabel Plate Reader which had EnVision Workstation version 1.7 (PerkinElmer, MA, The United States of America).

recombinant human HSD1 = target: T3, recombinant human HSD1 (Homo sapiens, UniProt P14061); experiment: HSD1 inhibition by HPLC with tritium labeled estrone/estradiol; format: biochemical; conditions: 1 μM
T3 construct: made in house; host or cells: Sf9 insect cells
T3 sequence (P14061 1-328): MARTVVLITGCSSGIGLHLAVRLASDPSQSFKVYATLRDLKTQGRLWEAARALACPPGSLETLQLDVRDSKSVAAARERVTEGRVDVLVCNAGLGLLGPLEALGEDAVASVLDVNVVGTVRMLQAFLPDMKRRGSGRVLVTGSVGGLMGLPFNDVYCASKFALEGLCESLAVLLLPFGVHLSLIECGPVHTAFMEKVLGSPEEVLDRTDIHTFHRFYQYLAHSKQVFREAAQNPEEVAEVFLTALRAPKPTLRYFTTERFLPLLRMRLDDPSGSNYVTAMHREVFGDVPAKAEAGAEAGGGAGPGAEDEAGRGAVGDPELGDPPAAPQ

Structure (SMILES) | inhibition at 10 µM (MAO-B) | LiPE (MAO-B) | IC50 (MAO-B) | inhibition at 10 µM (ERα) | inhibition at 1 µM (recombinant human HSD1) | MAO-B inhibition % (MAO-B; 10 µM, 2h) | ER inhibition % (ERα) | HSD1 inhibition % (recombinant human HSD1)
COc1ccc2cc(-c3cc(F)c(F)cc3F)c(=O)oc2c1 [derivative 16, 7-methoxy-3-(2,4,5-trifluorophenyl)-2H-chromen-2-one] | 77.6% | 2.13 | 1430 nM | 8.8% | 33% | – | – | –
O=c1oc2ccccc2cc1-c1cccc(O)c1 [derivative 31] | – | – | – | – | – | 49.60% | 0.00% | 56.00%
COc1ccc2oc(=O)c(-c3ccc(F)cc3)cc2c1 [derivative 21, 3-(4-fluorophenyl)-6-methoxy-2H-chromen-2-one] | 88.8% | 3.04 | 433 nM | 0% | 0% | – | – | –
